Assay results: ChEMBL document CHEMBL5390280, “Design, Synthesis, and Biological Evaluation of an Orally Bioavailable, Potent, and Selective ROCK2 Inhibitor for Psoriasis Treatment” (J Med Chem, 2023)
In brackets after ≈: the same amount, converted by molar mass. Activity calls are given as the source filed them. No cut-off for these calls is given here.

Assays:
Mus musculus [1] = assay: Anti-inflammatory activity in Balb/c mouse model of IMQ-induced skin inflammation assessed as decrease in IL-23 mRNA level in dorsal skin at 80 mg/kg, po administered daily for 7 days by RT-qPCR analysis; type: functional, organism-based; settings: time 7.0 day
[2] = Selectivity ratio of IC50 for ROCK1 (unknown origin) to IC50 for ROCK2 (unknown origin)
Mus musculus [3] = assay: Anti-inflammatory activity in Balb/c mouse model of IMQ-induced skin inflammation assessed as decrease in IL-17F mRNA level in dorsal skin at 80 mg/kg, po administered daily for 7 days by RT-qPCR analysis; type: functional, organism-based; settings: time 7.0 day
[4] = AUC (0 to infinity) in Balb/c mouse at 40 mg/kg, po measured for 0.08 to 24 hrs by LC-MS/MS analysis; type: ADME, organism-based; design: time 0.08-24 hrs, dose 40 mg/kg, route po; settings: in vivo
[5] = AUC (0 to t) in Balb/c mouse at 40 mg/kg, po measured for 0.08 to 24 hrs by LC-MS/MS analysis; type: ADME, organism-based; design: time 0.08-24 hrs, dose 40 mg/kg, route po; settings: in vivo
Mus musculus [6] = assay: Anti-inflammatory activity in Balb/c mouse model of IMQ-induced skin inflammation assessed as decrease in serum IL-17A level at 40 to 80 mg/kg, po administered daily for 7 days by IHC analysis; type: functional, organism-based; settings: dose 40-80 mg/kg, time 7.0 day
Mus musculus [7] = assay: Anti-inflammatory activity in Balb/c mouse model of IMQ-induced skin inflammation assessed as decrease in IL-17A mRNA level in dorsal skin at 80 mg/kg, po administered daily for 7 days by RT-qPCR analysis; type: functional, organism-based; settings: time 7.0 day
[8] = Cmax in Balb/c mouse at 40 mg/kg, po measured for 0.08 to 24 hrs by LC-MS/MS analysis; type: ADME, organism-based; design: time lower 0.08 hrs, dose 40 mg/kg, time upper 24 hrs, route po; settings: in vivo
Mus musculus [9] = assay: Anti-inflammatory activity in Balb/c mouse model of IMQ-induced skin inflammation assessed as decrease in IL-22 mRNA level in dorsal skin at 80 mg/kg, po administered daily for 7 days by RT-qPCR analysis; type: functional, organism-based; settings: time 7.0 day
HaCaT [10] = assay: Inhibition of KGF-induced hyperproliferation of human HaCaT cells by plate clone formation assay; type: functional, cell-based
Mus musculus [11] = assay: Anti-inflammatory activity in Balb/c mouse model of IMQ-induced skin inflammation assessed as decrease in IL-23 mRNA level in dorsal skin at 20 to 40 mg/kg, po administered daily for 7 days by RT-qPCR analysis; type: functional, organism-based; settings: dose 20-40 mg/kg, time 7.0 day
Mus musculus [12] = assay: Anti-inflammatory activity in Balb/c mouse model of IMQ-induced skin inflammation assessed as reduction in skin scales at 20 to 80 mg/kg, po administered daily for 7 days; type: functional, organism-based; settings: dose 20-80 mg/kg, time 7.0 day
Mus musculus [13] = assay: Anti-inflammatory activity in Balb/c mouse model of IMQ-induced skin inflammation assessed as decrease in Ki67+ cells in epidermis of dorsal skin at 80 mg/kg, po administered daily for 7 days by IHC analysis; type: functional, organism-based; settings: time 7.0 day
[14] = AUC (0 to infinity) in Balb/c mouse at 10 mg/kg, iv measured for 0.08 to 24 hrs by LC-MS/MS analysis; type: ADME, organism-based; design: dose 10 mg/kg, time upper 24 hrs, time lower 0.08 hrs, route iv; settings: in vivo
[15] = Oral bioavailability in Balb/c mouse at 40 mg/kg measured for 0.08 to 24 hrs by LC-MS/MS analysis; type: ADME, organism-based; settings: in vivo, time 0.08-24 hrs
[16] = Chemical stability of compound in PBS at pH 7.4 assessed as compound remaining measured after 10 days; type: physicochemical; settings: time 10 day, read-out: Stability
[17] = Toxicity in Balb/c mouse model of IMQ-induced skin inflammation assessed as body weight loss at 80 mg/kg, po administered daily for 7 days; type: organism-based; settings: in vivo, 168 h, time 7 day
[18] = Half life in Balb/c mouse at 10 mg/kg, iv measured for 0.08 to 24 hrs by LC-MS/MS analysis; type: ADME, organism-based; settings: in vivo, time 0.08-24 hrs
[19] = molecular target: Rho-associated protein kinase 1 (Homo sapiens, UniProt Q13464); assay: Inhibition of ROCK1 (unknown origin) by HTRF assay
Sequence of Rho-associated protein kinase 1 (Q13464 whole entry): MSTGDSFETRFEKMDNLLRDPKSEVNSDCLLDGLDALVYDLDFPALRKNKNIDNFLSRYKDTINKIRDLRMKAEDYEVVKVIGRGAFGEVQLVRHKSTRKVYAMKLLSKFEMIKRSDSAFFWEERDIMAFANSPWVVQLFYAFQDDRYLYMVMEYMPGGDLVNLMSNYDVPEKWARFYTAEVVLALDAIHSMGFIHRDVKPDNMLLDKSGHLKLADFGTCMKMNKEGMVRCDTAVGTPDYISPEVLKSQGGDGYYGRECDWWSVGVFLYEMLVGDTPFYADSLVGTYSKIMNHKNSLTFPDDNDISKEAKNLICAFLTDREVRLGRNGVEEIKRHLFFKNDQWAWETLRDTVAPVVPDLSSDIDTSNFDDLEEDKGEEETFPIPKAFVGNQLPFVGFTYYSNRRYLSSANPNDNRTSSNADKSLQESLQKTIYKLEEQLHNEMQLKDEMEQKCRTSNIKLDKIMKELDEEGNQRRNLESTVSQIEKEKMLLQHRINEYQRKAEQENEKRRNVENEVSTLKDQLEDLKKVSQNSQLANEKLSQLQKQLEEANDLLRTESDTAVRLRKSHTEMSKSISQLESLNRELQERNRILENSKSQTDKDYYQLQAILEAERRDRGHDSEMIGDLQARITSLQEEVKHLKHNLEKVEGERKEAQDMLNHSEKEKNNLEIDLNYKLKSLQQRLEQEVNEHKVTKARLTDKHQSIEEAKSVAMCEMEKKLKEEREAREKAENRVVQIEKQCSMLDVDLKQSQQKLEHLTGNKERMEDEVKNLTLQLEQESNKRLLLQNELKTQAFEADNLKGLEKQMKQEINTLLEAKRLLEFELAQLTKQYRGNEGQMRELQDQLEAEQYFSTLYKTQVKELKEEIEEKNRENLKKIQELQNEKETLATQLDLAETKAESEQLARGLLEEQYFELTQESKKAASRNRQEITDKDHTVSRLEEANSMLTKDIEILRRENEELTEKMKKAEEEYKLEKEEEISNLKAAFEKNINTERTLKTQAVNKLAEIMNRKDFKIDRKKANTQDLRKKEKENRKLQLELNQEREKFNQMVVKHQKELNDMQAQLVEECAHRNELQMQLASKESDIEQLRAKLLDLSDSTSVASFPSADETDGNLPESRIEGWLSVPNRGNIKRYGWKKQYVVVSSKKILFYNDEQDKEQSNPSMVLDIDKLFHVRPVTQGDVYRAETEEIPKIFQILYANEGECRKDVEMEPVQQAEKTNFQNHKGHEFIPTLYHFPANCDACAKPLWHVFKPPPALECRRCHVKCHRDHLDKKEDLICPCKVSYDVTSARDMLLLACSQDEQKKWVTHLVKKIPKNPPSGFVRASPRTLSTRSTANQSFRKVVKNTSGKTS

[20] = Clearance in Balb/c mouse at 10 mg/kg, iv measured for 0.08 to 24 hrs by LC-MS/MS analysis; type: ADME, organism-based; settings: in vivo, time 0.08-24 hrs
[21] = molecular target: Rho-associated protein kinase 2 (Homo sapiens, UniProt O75116); assay: Inhibition of ROCK2 (unknown origin) by HTRF assay
Sequence of Rho-associated protein kinase 2 (O75116 whole entry): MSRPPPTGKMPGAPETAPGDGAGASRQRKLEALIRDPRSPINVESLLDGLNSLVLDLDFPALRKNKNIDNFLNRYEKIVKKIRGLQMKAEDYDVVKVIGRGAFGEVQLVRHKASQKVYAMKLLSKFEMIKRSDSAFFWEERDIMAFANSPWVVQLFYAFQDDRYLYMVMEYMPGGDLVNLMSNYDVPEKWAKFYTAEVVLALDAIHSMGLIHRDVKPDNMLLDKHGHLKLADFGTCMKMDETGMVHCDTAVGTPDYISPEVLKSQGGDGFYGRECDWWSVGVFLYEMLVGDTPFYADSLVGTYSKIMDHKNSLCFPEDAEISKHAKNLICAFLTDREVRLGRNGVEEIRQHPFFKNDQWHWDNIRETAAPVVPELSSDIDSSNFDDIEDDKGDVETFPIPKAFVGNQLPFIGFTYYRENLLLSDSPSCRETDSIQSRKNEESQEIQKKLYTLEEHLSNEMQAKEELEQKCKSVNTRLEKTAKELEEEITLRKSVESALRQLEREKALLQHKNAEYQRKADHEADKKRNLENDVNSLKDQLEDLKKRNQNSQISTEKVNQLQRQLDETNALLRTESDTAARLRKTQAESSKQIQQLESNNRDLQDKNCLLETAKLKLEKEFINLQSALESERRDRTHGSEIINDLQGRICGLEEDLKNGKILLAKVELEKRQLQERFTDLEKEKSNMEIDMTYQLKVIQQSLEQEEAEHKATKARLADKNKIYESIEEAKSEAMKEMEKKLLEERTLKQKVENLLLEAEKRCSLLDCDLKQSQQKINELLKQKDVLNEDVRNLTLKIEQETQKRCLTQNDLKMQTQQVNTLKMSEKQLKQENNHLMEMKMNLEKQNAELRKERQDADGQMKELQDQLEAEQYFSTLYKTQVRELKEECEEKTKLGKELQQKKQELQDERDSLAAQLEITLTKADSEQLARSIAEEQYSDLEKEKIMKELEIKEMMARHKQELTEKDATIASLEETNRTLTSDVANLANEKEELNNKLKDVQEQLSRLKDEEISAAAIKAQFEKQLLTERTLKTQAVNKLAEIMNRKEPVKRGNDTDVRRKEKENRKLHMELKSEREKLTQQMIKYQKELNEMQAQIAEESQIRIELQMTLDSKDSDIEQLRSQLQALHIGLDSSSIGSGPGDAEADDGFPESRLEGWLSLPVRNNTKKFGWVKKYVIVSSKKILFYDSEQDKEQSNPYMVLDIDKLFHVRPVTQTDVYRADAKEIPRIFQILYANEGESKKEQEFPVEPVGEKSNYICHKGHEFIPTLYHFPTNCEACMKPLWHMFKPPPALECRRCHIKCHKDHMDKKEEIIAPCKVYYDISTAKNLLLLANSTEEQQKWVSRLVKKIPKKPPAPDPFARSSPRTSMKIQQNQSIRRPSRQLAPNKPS

Mus musculus [22] = assay: Anti-inflammatory activity in Balb/c mouse model of IMQ-induced skin inflammation assessed as decrease in IL-17A+ T cells in dorsal skin administered orally daily for 7 days by high power field microscopy; type: functional, organism-based; settings: T-cell, dose 20-80 mg/kg, route po, time 7.0 day
HaCaT [23] = assay: Anti-psoriasis effect in KGF-stimulated human HaCaT cells assessed as decrease in MMP-2 level at 2 to 5 uM incubated for 24 hrs by Western blot analysis; type: functional, cell-based; settings: dose 2-5 µM
Mus musculus [24] = assay: Anti-inflammatory activity in Balb/c mouse model of IMQ-induced skin inflammation assessed as decrease in serum IL-17F level at 80 mg/kg, po administered daily for 7 days by IHC analysis; type: functional, organism-based; settings: time 7.0 day
Mus musculus [25] = assay: Anti-inflammatory activity in Balb/c mouse model of IMQ-induced skin inflammation assessed as reduction in skin swelling at 20 to 80 mg/kg, po administered daily for 7 days; type: functional, organism-based; settings: dose 20-80 mg/kg, time 7.0 day
Mus musculus [26] = assay: Anti-inflammatory activity in Balb/c mouse model of IMQ-induced skin inflammation assessed as reduction in skin erythema at 20 to 80 mg/kg, po administered daily for 7 days; type: functional, organism-based; settings: dose 20-80 mg/kg, time 7.0 day
Mus musculus [27] = assay: Anti-inflammatory activity in Balb/c mouse model of IMQ-induced skin inflammation assessed as reduction in epidermal thickness of dorsal skin at 40 to 80 mg/kg, po administered daily for 7 days by H and E staining based analysis; type: functional, organism-based; settings: dose 40-80 mg/kg, time 7.0 day
HaCaT [28] = assay: Anti-psoriasis effect in KGF-stimulated human HaCaT cells assessed as decrease in N-cadherin level at 2 to 5 uM incubated for 24 hrs by Western blot analysis; type: functional, cell-based; settings: dose 2-5 µM
[29] = Solubility in aqueous buffer at pH 7.4; type: physicochemical
Mus musculus [30] = assay: In vivo inhibition of ROCK2 in Balb/c mouse model of IMQ-induced skin inflammation assessed as decrease in pSTAT5+ cells in dorsal skin at 20 to 80 mg/kg, po administered daily for 7 days by high power field microscopy; type: functional, organism-based; settings: dose 20-80 mg/kg, time 7.0 day
Mus musculus [31] = assay: Anti-inflammatory activity in Balb/c mouse model of IMQ-induced skin inflammation assessed as decrease in Ki67+ cells in dermis of dorsal skin at 80 mg/kg, po administered daily for 7 days by IHC analysis; type: functional, organism-based; settings: time 7.0 day
[32] = AUC (0 to t) in Balb/c mouse at 10 mg/kg, iv measured for 0.08 to 24 hrs by LC-MS/MS analysis; type: ADME, organism-based; design: time upper 24 hrs, time lower 0.08 hrs, dose 10 mg/kg, route iv; settings: in vivo
HaCaT [33] = assay: Anti-psoriasis effect in KGF-stimulated human HaCaT cells assessed as decrease in fibronectin level at 2 to 5 uM incubated for 24 hrs by Western blot analysis; type: functional, cell-based; settings: dose 2-5 µM
Mus musculus [34] = assay: Anti-inflammatory activity in Balb/c mouse model of IMQ-induced skin inflammation assessed as decrease in CD3+ T cells in dorsal skin at 20 to 80 mg/kg, po administered daily for 7 days by high power field microscopy; type: functional, organism-based; settings: T-cell, dose 20-80 mg/kg, time 7.0 day

Compound: Cc1cc(=O)n(-c2cccc(CN[C@H]3CCC[C@H](Nc4ccc5[nH]ncc5c4)C3)c2)cc1F
- Activity (Mus musculus [1]): Active
- Ratio IC50 [2]: 19
- Activity (Mus musculus [3]): inactive
- AUC(0-inf) [4]: 302 ng·h/mL
- AUC(0-t) [5]: 300 ng·h/mL
- Activity (Mus musculus [6]): Active
- Activity (Mus musculus [7]): Active
- Cmax [8]: 226 ng/mL
- Activity (Mus musculus [9]): Active
- inhibition (HaCaT [10]): Active
- Activity (Mus musculus [11]): Active
- Activity (Mus musculus [12]): Active
- Activity (Mus musculus [13]): Active
- AUC(0-inf) [14]: 1060 ng·h/mL
- bioavailability [15]: 7.14%
- remaining at 240 h [16]: 100%
- Activity [17]: Non-Toxic
- half-life [18]: 1.99 h
- IC50 [19]: 71.2 nM
- clearance [20]: 158 mL/min/kg
- IC50 [21]: 3.7 nM
- Activity (Mus musculus [22]): Dose-Dependent Effect
- Activity (HaCaT [23]): Active
- Activity (Mus musculus [24]): inactive
- Activity (Mus musculus [25]): Active
- Activity (Mus musculus [26]): Active
- Activity (Mus musculus [27]): Active
- Activity (HaCaT [28]): Active
- solubility [29]: 193 µg/mL (≈ 433 µM)
- Activity (Mus musculus [30]): Active
- Activity (Mus musculus [31]): Active
- AUC(0-t) [32]: 1040 ng·h/mL
- Activity (HaCaT [33]): Active
- Activity (Mus musculus [34]): Active
